Each structure is given as a SMILES string. Several values for one entry are separate records, joined by “and”; a condition that tells them apart may be missing. Equal values may be shown once.

Data set [1] is described as follows: Antiinflammatory effect, formalin paw edema (method by Ju. Strel'nikov). The settings on record: white mice, into the stomach, dose equimolecular to 20 mg/kg of indometacin, two hours before formalin. In kind it is in vivo. The text has this: Strel'nikov. […] Simultaneously antiinflammatory activity of indometacin was studied for comparison.
The subject of data set [2] is virus of herpes simplex (VHS) of the 2-nd antigenic type. Nature of the data set: Experimental herpes genitalis of male guinea pigs, treatment with Virolex or its OGC complex. It counts as in vivo. Conditions: for Duration of the Disease: treatment begun 48 hours after infecting. The text has this: VIRUSES. The virus of herpes simplex (VHS) of the 2-nd antigenic type was implied in this work. Clinical symptoms of experimental herpes genitalis were registered daily before carrying out of treatment and were followed during the course of the disease.
The following parameters were used as criteria of infectious process danger: square and specific damage rate—presence of an edema, hyperemia, orchitis. Maximum distinction of each symptom made up 4 points. The present symptoms allow to buildup a scale and to express the course of the disease for each group under investigation from beginning of appearance of the first symptoms of the disease up to full disappearance of these. In this case index of therapeutic effect (ITE) is expressed with the following formula: [formula]
Treatment was began 48 hours after infecting when symptoms of the disease were distinct enough.
The first group included animals infected with VHS-2 and not subjected to treatment with any medicament.
The second group included animals infected with VHS-2 and subjected to treatment with 5 mg of Virolex once a day.
The third group included animals infected with VHS-2 and subjected to treatment with 5 mg of Virolex complex with OGC once a day.

[3] abbreviates: guinea pigs infected with VHS-2, 5 mg once a day.

Take `COc1ccc2c(c1)c(CC(=O)O)c(C)n2C(=O)c1ccc(Cl)cc1` [Indometacin]: the “reduction of the edema compared to the control group” value in data set [1] turned out to be 33.4%.

In the case of `Nc1nc2c(ncn2COCCO)c(=O)[nH]1.[OH][Ge]12[O]CCN(CC[O]1)CC[O]2` [Virolex OGC (R = OH), complex of 1-hydroxy-1-germa-2,8,9-trioxy-5-azatricyclo[3.3.3.0^1,5]undecane with Virolex], in data set [2] (5 mg once a day), the “convalescent earlier than in the second group (Virolex)” value is recorded as 4.9 days and the “day of convalescence after infecting” value was “sixth”. For the same compound, in data set [2] (setting [3]), the “Duration of the Disease” value is 6,2 ± 1,8 Days. The “toxic effect on infected animals compared to pure Virolex” value in data set [2] (infected guinea pigs) is reported as “decreased its toxic effect”.

Regarding `Nc1nc2c(ncn2COCCO)c(=O)[nH]1` [Virolex, reference compound], in data set [2] (setting [3]), the “Total Index of Symptoms Distinction” value was 21 Points and 31,0 Points; the “Duration of the Disease” value is reported as 11,1 ± 2,01 Days. For the same compound, the “Index of Therapeutic Effect (ITE)” value in data set [2] (guinea pigs infected with VHS-2, 5 mg once a day, versus control group) turned out to be 58%.

Source of the values: US6451850B1, “Bio-chemical germanium complexes with high therapeutic efficiency and wide application spectrum” (priority 2001, dated 2002).
